Results reported in patent US20230096028A1, “BICYCLIC HETEROCYCLYL COMPOUNDS AND USES THEREOF” (Revolution Medicines, Inc., priority 2019, published 2023).
Like-named read-outs stand apart in the source and are kept apart here.

Legend:
[1] = tested on: PC-9 cells (EGFR Ex19Del); assay: Potency Assay: pERK (SOS1 pERK IC50 Assay, AlphaLISA SureFire Ultra p-ERK1/2); assay type: cell-based; conditions: Homo sapiens, read-out: SOS1 pERK IC50
Method in brief: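 Cellular pERK1/2 by AlphaLISA SureFire Ultra after 1 h compound exposure (37° C., highest concentration 10 μM, 3-fold steps, duplicates) of EGFR Ex19Del PC-9 cells seeded the day before. A 4-parameter fit of signal versus log concentration gives IC50.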

[2] = biological target: T1, SOS1 catalytic domain (residues 564-1049) (Homo sapiens, UniProt Q07889); assay: Mode of Action Assay: inhibition of SOS1 nucleotide exchange activity (SOS1 TR-FRET IC50 Assay)
T1 sequence (Q07889 564-1049): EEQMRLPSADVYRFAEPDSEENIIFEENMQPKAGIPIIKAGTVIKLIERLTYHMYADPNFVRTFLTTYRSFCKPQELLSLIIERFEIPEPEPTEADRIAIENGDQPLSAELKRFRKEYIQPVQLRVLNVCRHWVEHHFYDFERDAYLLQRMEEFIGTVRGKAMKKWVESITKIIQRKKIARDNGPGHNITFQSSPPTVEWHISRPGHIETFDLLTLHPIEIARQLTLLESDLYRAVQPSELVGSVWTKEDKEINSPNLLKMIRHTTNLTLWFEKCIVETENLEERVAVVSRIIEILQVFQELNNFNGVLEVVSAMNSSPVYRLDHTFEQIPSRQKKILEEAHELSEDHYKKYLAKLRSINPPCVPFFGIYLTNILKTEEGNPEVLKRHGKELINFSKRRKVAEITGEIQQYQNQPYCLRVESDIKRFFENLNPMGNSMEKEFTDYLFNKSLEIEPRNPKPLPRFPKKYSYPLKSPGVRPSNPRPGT

[3] = biological target: T1, SOS1 catalytic domain (residues 564-1049); assay: Potency Assay: binding affinity to SOS1 using Surface Plasmon Resonance (SPR); parameters: SOS1 catalytic domain (residues 564-1049) immobilized on a sensor chip; conditions: immobilized SOS1 catalytic domain (residues 564-1049), read-out: SOS1 SPR Equilibrium Kd
Method in brief: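 Kd was obtained by plotting binding response, taken just before association ended, versus compound concentration on a Biacore 8K. Compounds flowed at 50 μL/min over streptavidin-captured avi-SOS1 catalytic domain (~6000 RU), followed by buffer dissociation; HEPES 0.01 M/NaCl 0.15 M/0.05% P20 buffer, double-referenced.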

[4] = PC-9 cells (EGFR Ex19Del), 1 hour incubation, AlphaLISA p-ERK1/2

| Compound | IC50 ([1]; PC-9, 1 h) | IC50 [2] | Kd [3] | IC50 [1, 4] |
| --- | --- | --- | --- | --- |
| C[C@@H](Nc1nc(Cl)nc2c1CN(C(=O)N1CCOCC1)C2)c1cccc(C(F)F)c1Cl [Example 522, 2-chloro-N-[(1R)-1-[2-chloro-3-(difluoromethyl)phenyl]ethyl]-6-(morpholine-4-carbonyl)-5H,6H,7H-pyrrolo[3,4-d]pyrimidin-4-amine] | < 1 µM | < 1 µM | < 0.4 µM |  |
| C[C@@H](Nc1nc(Cl)nc2c1CN(C(=O)N1CCNCC1)C2)c1cccc(C(F)(F)F)c1 [Example 364] |  | < 1 µM | < 0.4 µM | < 1 µM |
| CC(=O)N1Cc2nc(C)nc(N[C@H](C)c3cc(N)cc(C(F)(F)F)c3)c2C1 [Example 120, 1-(4-{[(1R)-1-[3-amino-5-(trifluoromethyl)phenyl]ethyl]amino}-2-methyl-5H,6H,7H-pyrrolo[3,4-d]pyrimidin-6-yl)ethan-1-one] |  | > 1 µM | > 0.4 µM | > 1 µM |
| C[C@@H](Nc1nc(Cl)nc2c1CN(C(=O)C1CCNCC1F)C2)c1cccc(C(F)F)c1F (stereo partly drawn) [Example 305] |  | < 1 µM | < 0.4 µM | > 1 µM |
| C[C@@H](Nc1nc(C#N)nc2c1CN(C(=O)N1CCOCC1)C2)c1cc(N)cc(C(F)(F)F)c1 [Example 123, 4-{[(1R)-1-[3-amino-5-(trifluoromethyl)phenyl]ethyl]amino}-6-(morpholine-4-carbonyl)-5H,6H,7H-pyrrolo[3,4-d]pyrimidine-2-carbonitrile] |  | < 1 µM | < 0.4 µM | < 1 µM |
| C[C@@H](Nc1nc(Cl)nc2c1CN(C(=O)N1C[C@H]3CNCC[C@H]3C1)C2)c1cccc(C(F)(F)F)c1 [Example 378] |  | < 1 µM | < 0.4 µM | > 1 µM |
| C[C@@H](Nc1nc(Cl)nc2c1CN(C(=O)N1CCOCC1)C2)c1cccc(C(F)(F)CO)c1 [Example 168, [2-chloro-4-[[(1R)-1-[3-(1,1-difluoro-2-hydroxy-ethyl)phenyl]ethyl]amino]-5,7-dihydropyrrolo[3,4-d]pyrimidin-6-yl]-morpholino-methanone] |  | < 1 µM | < 0.4 µM | < 1 µM |
| C[C@@H](Nc1nc(Cl)nc2c1CN(C(=O)[C@@]13COC[C@@H]1CN(S(C)(=O)=O)C3)CC2)c1cc(N)cc(C(F)(F)F)c1 [Example 222] |  | > 1 µM | > 0.4 µM | > 1 µM |
| C[C@@H](Nc1nc(Cl)nc2c1CN(C(=O)N1CCOCC1)C2)c1cccc(C(F)(F)COC2COC2)c1 [Example 479, 2-chloro-N-[(1R)-1-{3-[1,1-difluoro-2-(oxetan-3-yloxy)ethyl]phenyl}ethyl]-6-(morpholine-4-carbonyl)-5H,6H,7H-pyrrolo[3,4-d]pyrimidin-4-amine] |  | < 1 µM | < 0.4 µM | < 1 µM |
| C[C@@H](Nc1nc(Cl)nc2c1CN(C(=O)N1CCc3ccncc31)C2)c1cc(N)cc(C(F)(F)F)c1 [Example 142] |  | < 1 µM | < 0.4 µM | < 1 µM |
| C[C@@H](Nc1nc(Cl)nc2c1CN(C(=O)N1CCNCC(F)(F)C1)C2)c1cccc(C(F)F)c1F [Example 402] |  | < 1 µM | < 0.4 µM | < 1 µM |
| C[C@@H](Nc1nc(Cl)nc2c1CN(C(=O)N1CCOCC1)C2)c1cccc(C(C)(C)C#N)c1 [Example 482, 2-{3-[(1R)-1-{[2-chloro-6-(morpholine-4-carbonyl)-5H,6H,7H-pyrrolo[3,4-d]pyrimidin-4-yl]amino}ethyl]phenyl}-2-methylpropanenitrile] | > 1 µM | < 1 µM | > 0.4 µM |  |
| C[C@@H](Nc1nc(Cl)nc2c1C[C@@H](N1CCOCC1)CC2)c1cccc(C(F)(F)CO)c1 [Example 436] |  | < 1 µM | < 0.4 µM | < 1 µM |
| COC1(C(=O)N2Cc3nc(CN)nc(N[C@H](C)c4cccc(C(F)(F)F)c4)c3C2)CCOCC1 [Example 350, (R)-(2-(aminomethyl)-4-((1-(3-(trifluoromethyl)phenyl)ethyl)amino)-5,7-dihydro-6H-pyrrolo[3,4-d]pyrimidin-6-yl)(4-methoxytetrahydro-2H-pyran-4-yl)methanone] |  | < 1 µM | < 0.4 µM | < 1 µM |
| C[C@@H](Nc1nc(Cl)nc2c1CN(S(=O)(=O)C1COC1)CC2)c1cc(N)cc(C(F)(F)F)c1 [Example 453] |  | < 1 µM | < 0.4 µM | < 1 µM |
| C[C@@H](Nc1nc(Cl)nc2c1CN(C(=O)OC1CCOCC1)C2)c1cc(N)cc(C(F)(F)F)c1 [Example 115, oxan-4-yl 4-{[(1R)-1-[3-amino-5-(trifluoromethyl)phenyl]ethyl]amino}-2-chloro-5H,6H,7H-pyrrolo[3,4-d]pyrimidine-6-carboxylate] | < 1 µM | > 1 µM | < 0.4 µM |  |
| C[C@@H](Nc1nc(Cl)nc2c1CN(C(=O)C13CN(C1)S(=O)(=O)C3)C2)c1cccc(C(F)F)c1F [Example 297] |  | < 1 µM | < 0.4 µM | < 1 µM |
| CC1CNCCN1C(=O)N1Cc2nc(Cl)nc(N[C@H](C)c3cccc(C(F)F)c3F)c2C1 (stereo partly drawn) [Example 391] |  | < 1 µM | < 0.4 µM | < 1 µM |
| COc1cc(C(=O)N2Cc3nc(Cl)nc(N[C@H](C)c4cc(N)cc(C(F)(F)F)c4)c3C2)ncn1 [Example 62] |  | > 1 µM | < 0.4 µM | < 1 µM |
| C[C@@H](Nc1nc(Cl)nc2c1CN(C(=O)c1ccc(N3CCOCC3)cn1)C2)c1cc(N)cc(C(F)(F)F)c1 [Example 84] |  | > 1 µM | < 0.4 µM | < 1 µM |
| C[C@@H](Nc1nc(Cl)nc2c1CN(C(=O)c1ccc3c(n1)CCNC3)C2)c1cc(N)cc(C(F)(F)F)c1 [Example 82] |  | < 1 µM | < 0.4 µM | < 1 µM |
| C[C@@H](Nc1nc(Cl)nc2c1CN(C(=O)c1ccnnc1)C2)c1cc(N)cc(C(F)(F)F)c1 [Example 78] |  | < 1 µM | < 0.4 µM | < 1 µM |
| C[C@@H](Nc1nc(Cl)nc2c1CN(C(=O)N1CCOCC1)C2)c1cccc(C(F)(F)F)c1 [Example 137, 2-chloro-6-(morpholine-4-carbonyl)-N-[(1R)-1-[3-(trifluoromethyl)phenyl]ethyl]-5H,6H,7H-pyrrolo[3,4-d]pyrimidin-4-amine] |  | < 1 µM | < 0.4 µM | < 1 µM |
| C[C@@H](Nc1nc(Cl)nc2c1CN(C(=O)C13CCN(CC1)CC3)C2)c1cccc(C(F)F)c1F [Example 313] |  | < 1 µM | < 0.4 µM | < 1 µM |
| C[C@@H](Nc1nc(Cl)nc2c1CN(C(=O)N1CCNc3ccncc31)C2)c1cccc(C(F)(F)F)c1 [Example 375] |  | < 1 µM | < 0.4 µM | < 1 µM |
| Cc1nc2c(c(N[C@H](C)c3cc(N)cc(C(F)(F)F)c3)n1)CN(C(=O)C1CCOCC1)C2 [Example 119, N-[(1R)-1-[3-amino-5-(trifluoromethyl)phenyl]ethyl]-2-methyl-6-(oxane-4-carbonyl)-5H,6H,7H-pyrrolo[3,4-d]pyrimidin-4-amine] |  | < 1 µM | < 0.4 µM | > 1 µM |
| C[C@@H](Nc1nc(Cl)nc2c1CN(C(=O)C1(C)CN(CCF)C1)C2)c1cccc(C(F)F)c1F [Example 342] |  | < 1 µM | < 0.4 µM | < 1 µM |
